Remaining activity data for two molecules are collected here from publication PMC7224190, “Pharmacological inhibition of PRMT7 links arginine monomethylation to the cellular stress response” (Nature Communications, 2020).

Common to all, as to test: biochemical
What all share (design): radiometric methyltransferase selectivity assay with tritiated SAM, per cent activity
What all share (details): read-out: % of control remaining

For one test, the target named is T1, BCDIN3D (Homo sapiens, UniProt Q7Z5W3).
T1 sequence (Q7Z5W3 1-292): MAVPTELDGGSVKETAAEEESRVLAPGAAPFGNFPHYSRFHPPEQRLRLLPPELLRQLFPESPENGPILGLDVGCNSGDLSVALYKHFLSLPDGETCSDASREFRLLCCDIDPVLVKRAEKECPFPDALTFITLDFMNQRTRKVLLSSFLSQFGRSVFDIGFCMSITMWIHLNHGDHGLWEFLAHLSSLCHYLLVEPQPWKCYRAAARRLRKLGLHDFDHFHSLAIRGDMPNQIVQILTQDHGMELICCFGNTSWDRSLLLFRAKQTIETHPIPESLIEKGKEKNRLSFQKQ
The procedure:
(§1) The methyltransferase selectivity was assessed at two compound concentrations of 1 and 10 μM by radiometric assays using tritiated-SAM. For methyltransferases: MLL1, MLL3, EZH1 (PRC2), and EZH2 (PRC2), G9a, GLP, SUV39H1, SUV39H2, SUV420H1, SUV420H2, SETD2, SETD8, SETDB1, SETD7, PRMT1, PRMT3, PRMT4, PRMT5/ MEP50 complex, PRMT6, PRMT7, PRMT8, PRMT9, PRDM9, SMYD2, SMYD3, DNMT1, and BCDIN3D the incorporation of a tritium-labeled methyl group into biotinylated substrate was monitored using scintillation proximity assay (SPA). Briefly, a 10 μL reaction containing ^3H-SAM and substrate at concentrations close to the apparent Km values for each enzyme (balanced conditions) was prepared. The reactions were quenched with 10 μL of 7.5 M guanidine hydrochloride; 180 μL of 20 mM Tris buffer (pH 8.0) were added, and the mixture was transferred to a 96-well FlashPlate and incubated for 1 h. The counts per minute (CPM) was measured on a TopCount plate reader. The CPM in the absence of compound or enzyme was defined as 100% activity and background (0%), respectively, for each dataset[74]–[76]. Selectivity of SGC8158 against 342 kinases was evaluated in a kinase panel TR-FRET assay at 1 and 0.1 μM compound in duplicates as described before. Briefly, tagged kinases were incubated with compound and staurosporine-based fluorescent probe where the binding was detected using Tb conjugated anti-tag antibody energy transfer to the probe. Excitation wavelength was 337 nm and fluorescent emission signal was measured for Tb (486 nm) and fluorescent probe (BODIPY, 515 nm). Specific and non-specific binding was determined in the absence and presence of unlabeled staurosporine.

Another test concerns the target DNMT1 (Homo sapiens, UniProt P26358). The procedure: as §1
The next test deals with METTL3-14 (Homo sapiens, UniProt Q86U44). As to the method: as §1
For another test, the target named is T2, NSD2 (Homo sapiens, UniProt O96028).
T2 sequence (O96028 1-1365): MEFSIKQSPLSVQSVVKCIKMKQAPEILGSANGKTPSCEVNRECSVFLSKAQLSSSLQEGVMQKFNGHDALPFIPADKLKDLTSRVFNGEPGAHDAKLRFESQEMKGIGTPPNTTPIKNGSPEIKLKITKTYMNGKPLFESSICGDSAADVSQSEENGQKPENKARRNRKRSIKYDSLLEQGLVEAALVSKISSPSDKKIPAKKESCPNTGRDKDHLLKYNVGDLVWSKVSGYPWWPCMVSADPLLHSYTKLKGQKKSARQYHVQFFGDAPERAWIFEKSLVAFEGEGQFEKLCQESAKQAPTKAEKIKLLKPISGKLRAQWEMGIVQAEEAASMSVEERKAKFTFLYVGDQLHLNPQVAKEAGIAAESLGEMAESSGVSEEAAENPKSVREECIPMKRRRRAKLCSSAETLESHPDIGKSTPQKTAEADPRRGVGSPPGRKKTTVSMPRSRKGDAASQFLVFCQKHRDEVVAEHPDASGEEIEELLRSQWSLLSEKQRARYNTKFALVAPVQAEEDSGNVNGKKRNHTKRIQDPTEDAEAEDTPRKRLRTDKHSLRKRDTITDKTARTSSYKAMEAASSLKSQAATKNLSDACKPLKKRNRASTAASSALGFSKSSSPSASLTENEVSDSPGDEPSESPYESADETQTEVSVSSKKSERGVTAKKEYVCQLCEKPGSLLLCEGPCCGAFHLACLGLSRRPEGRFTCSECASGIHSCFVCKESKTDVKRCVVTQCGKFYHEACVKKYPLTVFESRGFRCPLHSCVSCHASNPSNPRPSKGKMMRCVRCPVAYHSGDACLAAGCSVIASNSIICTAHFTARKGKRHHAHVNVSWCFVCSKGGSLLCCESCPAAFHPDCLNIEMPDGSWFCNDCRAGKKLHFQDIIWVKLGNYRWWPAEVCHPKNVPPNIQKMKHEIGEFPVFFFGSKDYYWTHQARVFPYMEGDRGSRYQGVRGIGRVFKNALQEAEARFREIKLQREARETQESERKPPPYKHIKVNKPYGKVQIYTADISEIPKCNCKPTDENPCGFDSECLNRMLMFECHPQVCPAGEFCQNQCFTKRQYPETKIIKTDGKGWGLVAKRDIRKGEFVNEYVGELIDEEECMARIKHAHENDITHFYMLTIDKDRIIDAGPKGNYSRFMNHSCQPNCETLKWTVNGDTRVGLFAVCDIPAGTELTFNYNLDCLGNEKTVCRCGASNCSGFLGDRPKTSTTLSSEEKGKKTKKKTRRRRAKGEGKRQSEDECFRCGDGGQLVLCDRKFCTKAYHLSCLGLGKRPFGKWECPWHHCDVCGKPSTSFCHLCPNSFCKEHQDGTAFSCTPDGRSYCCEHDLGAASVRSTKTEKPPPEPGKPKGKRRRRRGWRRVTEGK
As to the method: as §1

The target in the next test is PRMT6 (Homo sapiens, UniProt Q96LA8). The procedure:
as §1

The target in the next test is T3, SUV420H1 (Homo sapiens, UniProt Q4FZB7).
T3 construct: gene KMT5B
The procedure:
as §1

Sequence of METTL3-14 (Q86U44 whole entry): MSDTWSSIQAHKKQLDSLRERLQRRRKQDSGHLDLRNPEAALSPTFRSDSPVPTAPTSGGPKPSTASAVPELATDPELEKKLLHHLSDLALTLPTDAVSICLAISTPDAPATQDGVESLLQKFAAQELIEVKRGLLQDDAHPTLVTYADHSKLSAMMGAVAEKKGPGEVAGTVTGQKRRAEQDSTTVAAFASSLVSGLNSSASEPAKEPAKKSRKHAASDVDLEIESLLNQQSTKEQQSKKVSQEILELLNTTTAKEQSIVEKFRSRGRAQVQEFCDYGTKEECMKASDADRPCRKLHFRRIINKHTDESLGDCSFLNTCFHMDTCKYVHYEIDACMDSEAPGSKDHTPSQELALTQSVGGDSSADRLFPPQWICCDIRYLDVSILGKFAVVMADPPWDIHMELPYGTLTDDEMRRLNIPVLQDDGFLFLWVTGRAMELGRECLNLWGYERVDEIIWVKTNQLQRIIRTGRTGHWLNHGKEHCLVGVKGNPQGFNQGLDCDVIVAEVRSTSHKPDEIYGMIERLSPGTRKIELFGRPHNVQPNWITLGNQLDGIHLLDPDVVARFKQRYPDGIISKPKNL
Sequence of METTL3-14 (Q9HCE5 whole entry partner): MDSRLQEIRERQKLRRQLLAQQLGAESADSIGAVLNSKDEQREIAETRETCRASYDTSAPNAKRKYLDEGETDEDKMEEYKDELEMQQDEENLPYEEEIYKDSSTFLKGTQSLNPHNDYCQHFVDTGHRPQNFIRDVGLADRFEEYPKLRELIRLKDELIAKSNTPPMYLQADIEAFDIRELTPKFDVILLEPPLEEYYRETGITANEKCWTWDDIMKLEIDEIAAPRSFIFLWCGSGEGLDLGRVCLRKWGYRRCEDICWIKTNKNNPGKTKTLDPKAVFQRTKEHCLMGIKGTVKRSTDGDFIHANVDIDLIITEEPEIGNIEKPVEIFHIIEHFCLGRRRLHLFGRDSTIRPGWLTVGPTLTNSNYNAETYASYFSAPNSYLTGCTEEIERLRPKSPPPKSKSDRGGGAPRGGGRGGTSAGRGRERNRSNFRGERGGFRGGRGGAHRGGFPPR
T3 sequence (Q4FZB7 whole entry): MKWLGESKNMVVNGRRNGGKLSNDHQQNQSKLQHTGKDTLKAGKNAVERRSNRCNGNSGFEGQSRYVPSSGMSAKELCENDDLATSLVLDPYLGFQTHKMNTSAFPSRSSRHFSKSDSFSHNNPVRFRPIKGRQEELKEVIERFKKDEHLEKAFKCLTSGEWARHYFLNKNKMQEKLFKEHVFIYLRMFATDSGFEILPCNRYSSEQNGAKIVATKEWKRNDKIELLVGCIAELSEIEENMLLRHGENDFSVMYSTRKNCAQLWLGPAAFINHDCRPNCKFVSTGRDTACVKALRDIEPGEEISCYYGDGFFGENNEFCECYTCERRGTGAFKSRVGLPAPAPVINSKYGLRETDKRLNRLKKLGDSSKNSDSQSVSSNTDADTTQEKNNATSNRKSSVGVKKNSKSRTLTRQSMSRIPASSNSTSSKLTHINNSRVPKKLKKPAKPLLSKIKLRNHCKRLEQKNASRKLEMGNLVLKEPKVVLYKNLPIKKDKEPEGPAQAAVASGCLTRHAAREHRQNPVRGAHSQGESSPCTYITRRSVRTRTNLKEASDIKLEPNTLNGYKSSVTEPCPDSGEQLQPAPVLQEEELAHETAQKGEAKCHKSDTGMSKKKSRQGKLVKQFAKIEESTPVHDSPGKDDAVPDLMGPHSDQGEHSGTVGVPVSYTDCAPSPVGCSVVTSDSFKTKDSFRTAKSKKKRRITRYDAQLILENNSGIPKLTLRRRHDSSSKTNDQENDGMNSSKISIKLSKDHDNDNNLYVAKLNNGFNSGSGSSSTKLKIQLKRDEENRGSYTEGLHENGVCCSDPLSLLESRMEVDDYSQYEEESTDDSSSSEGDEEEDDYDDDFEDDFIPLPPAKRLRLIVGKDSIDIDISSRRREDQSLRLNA
Sequence of PRMT6 (Q96LA8 whole entry): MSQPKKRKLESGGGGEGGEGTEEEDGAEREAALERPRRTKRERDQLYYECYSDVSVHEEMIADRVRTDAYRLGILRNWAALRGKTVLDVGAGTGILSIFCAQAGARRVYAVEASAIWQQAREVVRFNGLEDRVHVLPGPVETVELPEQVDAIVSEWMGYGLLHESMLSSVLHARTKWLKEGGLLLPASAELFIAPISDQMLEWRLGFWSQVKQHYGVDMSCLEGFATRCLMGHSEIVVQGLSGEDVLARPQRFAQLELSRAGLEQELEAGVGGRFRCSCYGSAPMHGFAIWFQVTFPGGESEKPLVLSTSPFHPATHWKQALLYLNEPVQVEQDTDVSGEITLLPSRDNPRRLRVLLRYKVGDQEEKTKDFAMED
Sequence of DNMT1 (P26358 whole entry): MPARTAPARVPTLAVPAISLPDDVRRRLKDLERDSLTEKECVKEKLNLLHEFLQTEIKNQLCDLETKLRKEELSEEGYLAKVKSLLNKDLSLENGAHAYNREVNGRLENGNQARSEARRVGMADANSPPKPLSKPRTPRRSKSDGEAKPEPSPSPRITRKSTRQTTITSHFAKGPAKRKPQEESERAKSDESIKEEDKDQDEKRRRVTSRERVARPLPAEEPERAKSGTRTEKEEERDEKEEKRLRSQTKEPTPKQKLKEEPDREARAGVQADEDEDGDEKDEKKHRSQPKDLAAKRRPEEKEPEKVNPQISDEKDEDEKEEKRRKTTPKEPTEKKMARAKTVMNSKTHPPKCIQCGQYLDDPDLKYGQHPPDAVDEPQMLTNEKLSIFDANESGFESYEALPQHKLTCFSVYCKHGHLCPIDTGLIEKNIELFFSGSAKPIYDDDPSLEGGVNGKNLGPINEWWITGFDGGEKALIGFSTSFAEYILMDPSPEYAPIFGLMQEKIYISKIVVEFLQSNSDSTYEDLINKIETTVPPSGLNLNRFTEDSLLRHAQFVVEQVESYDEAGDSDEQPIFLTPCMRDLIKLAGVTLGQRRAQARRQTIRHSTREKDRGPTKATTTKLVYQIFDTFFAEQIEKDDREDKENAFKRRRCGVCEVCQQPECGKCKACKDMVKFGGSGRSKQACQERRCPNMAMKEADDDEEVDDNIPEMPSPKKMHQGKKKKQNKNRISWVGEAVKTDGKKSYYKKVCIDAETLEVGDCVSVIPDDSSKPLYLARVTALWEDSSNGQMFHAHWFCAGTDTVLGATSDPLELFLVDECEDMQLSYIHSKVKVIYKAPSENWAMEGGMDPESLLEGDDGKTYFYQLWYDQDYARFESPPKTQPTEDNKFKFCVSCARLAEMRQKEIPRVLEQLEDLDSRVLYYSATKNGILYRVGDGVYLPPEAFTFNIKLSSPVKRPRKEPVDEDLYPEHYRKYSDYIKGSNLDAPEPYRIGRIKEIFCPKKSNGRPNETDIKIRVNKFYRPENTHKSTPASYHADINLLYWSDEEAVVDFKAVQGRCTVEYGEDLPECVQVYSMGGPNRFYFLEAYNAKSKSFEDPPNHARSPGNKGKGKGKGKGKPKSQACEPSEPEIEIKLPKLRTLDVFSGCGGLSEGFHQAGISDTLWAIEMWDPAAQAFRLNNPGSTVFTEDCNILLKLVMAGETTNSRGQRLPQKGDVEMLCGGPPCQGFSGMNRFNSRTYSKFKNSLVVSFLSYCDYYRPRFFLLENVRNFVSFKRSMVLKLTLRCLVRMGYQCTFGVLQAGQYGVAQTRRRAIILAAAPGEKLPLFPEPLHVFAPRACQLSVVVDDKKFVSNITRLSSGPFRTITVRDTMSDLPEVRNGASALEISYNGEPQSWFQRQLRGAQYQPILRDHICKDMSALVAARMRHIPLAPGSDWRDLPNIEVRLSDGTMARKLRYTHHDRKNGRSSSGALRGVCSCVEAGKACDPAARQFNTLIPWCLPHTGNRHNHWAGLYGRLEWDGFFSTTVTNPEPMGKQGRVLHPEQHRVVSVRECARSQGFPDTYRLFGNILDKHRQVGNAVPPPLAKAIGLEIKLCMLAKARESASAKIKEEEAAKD

Take `CC1(C)O[C@@H]2[C@H](O1)[C@@H](CSCCCCNCc1cccc(-c3ccc(Cl)cc3)c1)O[C@H]2n1cnc2c(N)ncnc21` [SGC8158N]: the remaining activity at 1 µM on BCDIN3D came out at 96%; at DNMT1 it was 94%; at METTL3-14 it was 87%; at NSD2, 92%; at PRMT6, 94%; on SUV420H1, 99%. The remaining activity at 10 µM came to 94% at BCDIN3D; 99% at DNMT1; 73% on METTL3-14; 97% at NSD2; 87% on PRMT6; 102% at SUV420H1.
In the case of `Nc1ncnc2c1ncn2[C@@H]1O[C@H](CSCCCCNCc2cccc(-c3ccc(Cl)cc3)c2)[C@@H](O)[C@H]1O` [SGC8158], the remaining activity at 1 µM on BCDIN3D was 55%; on DNMT1 it was 98%; at METTL3-14, 97%; on NSD2, 106%; on PRMT6, 100%; on SUV420H1 it was 96%. Besides, the remaining activity at 10 µM on BCDIN3D is 11%; at DNMT1, 91%; on METTL3-14 it was 84%; at NSD2, 101%; on PRMT6 it was 58%; on SUV420H1, 87%.
